In patent publication US8580229B2, “Amyloid imaging as a surrogate marker for efficacy of anti-amyloid therapies” (University of Pittsburgh—of the Commonwealth System of …, priority 2004, dated 2013):

System: amyloid deposition in AD brain (homogenates of frontal, temporal, parietal cortex and cerebellum)
Assay: [^3H]PIB binding to homogenates of postmortem brain
Parameters: species or system human
Settings: AD n=5, control n=4; 1 nM [^3H]PIB
Method: To determine whether benzothiazole amyloid imaging probes might be sensitive to changes in brain amyloid deposition caused by an anti-amyloid therapy in general, testing by immunization with AN-1792 was performed. Studies were performed for the binding of {N-methyl-^3H}2-[4′-(methylamino)phenyl]6-hydroxy-benzothiazole ([^3H]PIB) to homogenates of frontal cortex and cerebellum obtained from control subjects (n=4), AD patients (n=5) and from a single AN-1792-treated AD case (in duplicate). See, e.g., Example 9.
This [^11C]PIB retention follows the known topography of amyloid deposition in AD brain (Klunk et al. 2004, Ann. Neurol., 55 (3):306-19). To determine whether the present benzothiazole amyloid imaging probes are sensitive to changes in brain amyloid deposition caused by an anti-amyloid therapy in general, studies were performed for the binding of {N-methyl-^3H}2-[4′-(methylamino)phenyl]6-hydroxy-benzothiazole ([^3H]PIB) to homogenates of postmortem brain from […] AN-1792-treated AD cases. […] An aliquot was submitted for Aβ ELISA and another aliquot was assayed for [^3H]PIB binding after dilution with phosphate-buffered saline (100 mg tissue, incubated with 1 nM [^3H]PIB, filtered, washed and counted to determine bound [^3H]PIB).

[3H]C([3H])([3H])Nc1ccc(-c2nc3ccc(O)cc3s2)cc1 [[^3H]PIB, {N-methyl-^3H}2-[4′-(methylamino)phenyl]6-hydroxy-benzothiazole]
[^3H]PIB binding to frontal cortex homogenates of AD patients compared to control brain: elevated [^3H]PIB binding compared to control brain
